In one assay the target is ABL1 (Homo sapiens, UniProt P00519). The assay can be described thus: Kinobeads two-dose competition binding: ABL1. The following applies: sheet CATDS matrix 2; Gene Name ABL1.
The next assay concerns the target T1, ABL2 (Homo sapiens, UniProt P42684).
T1 construct: endogenous in cells
The assay can be described thus: Kinobeads two-dose competition binding: ABL2. The following applies: sheet CATDS matrix 2; Gene Name ABL2.

The target of a further assay is T2, AAK1 (Homo sapiens, UniProt Q2M2I8).
T2 construct: to maximize the representation of endogenous proteins; endogenous in cells
The assay can be described thus: Kinobeads two-dose competition binding: AAK1.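 For all read-outs here: kinobeads competition pulldown from cell lysate, compound preincubated 45 min at 4 °C, bead-bound protein measured by label-free mass spectrometry against DMSO vehicle control.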 The following applies: for CATDS: sheet CATDS matrix 2, Gene Name AAK1; for potency estimated from few doses: read-out: Kinobeads Drugmatrix - all: apparent Kd, AAK1.

For a further assay, the target named is T3, ACAD11 (Homo sapiens, UniProt Q709F0).
T3 construct: endogenous in cells
T3 sequence (Q709F0 1-780): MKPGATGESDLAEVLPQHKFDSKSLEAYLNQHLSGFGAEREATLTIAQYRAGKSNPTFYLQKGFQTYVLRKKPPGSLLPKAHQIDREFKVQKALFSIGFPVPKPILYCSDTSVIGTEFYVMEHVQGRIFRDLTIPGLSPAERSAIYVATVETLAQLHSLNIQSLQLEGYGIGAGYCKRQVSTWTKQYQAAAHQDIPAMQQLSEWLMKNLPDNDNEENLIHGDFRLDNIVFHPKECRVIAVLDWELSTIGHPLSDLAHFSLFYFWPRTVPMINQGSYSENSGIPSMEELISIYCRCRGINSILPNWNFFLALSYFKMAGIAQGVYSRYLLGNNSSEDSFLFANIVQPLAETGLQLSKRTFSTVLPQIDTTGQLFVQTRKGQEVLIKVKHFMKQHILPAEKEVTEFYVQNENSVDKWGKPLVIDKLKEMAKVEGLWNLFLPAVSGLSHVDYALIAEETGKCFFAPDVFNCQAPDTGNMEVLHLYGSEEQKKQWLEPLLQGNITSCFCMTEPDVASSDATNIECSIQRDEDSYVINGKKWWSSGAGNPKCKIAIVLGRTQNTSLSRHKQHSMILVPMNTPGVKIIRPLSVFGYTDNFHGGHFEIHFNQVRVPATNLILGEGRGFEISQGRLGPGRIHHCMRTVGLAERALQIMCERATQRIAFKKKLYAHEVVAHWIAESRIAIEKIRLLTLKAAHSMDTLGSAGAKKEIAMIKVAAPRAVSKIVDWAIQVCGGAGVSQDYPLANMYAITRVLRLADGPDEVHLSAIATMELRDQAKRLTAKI
The assay can be described thus: Kinobeads two-dose competition binding: ACAD11. Conditions: sheet CATDS matrix 2; Gene Name ACAD11.

The next assay deals with T4, ACOX1 (Homo sapiens, UniProt Q15067).
T4 construct: endogenous in cells
T4 sequence (Q15067 1-660): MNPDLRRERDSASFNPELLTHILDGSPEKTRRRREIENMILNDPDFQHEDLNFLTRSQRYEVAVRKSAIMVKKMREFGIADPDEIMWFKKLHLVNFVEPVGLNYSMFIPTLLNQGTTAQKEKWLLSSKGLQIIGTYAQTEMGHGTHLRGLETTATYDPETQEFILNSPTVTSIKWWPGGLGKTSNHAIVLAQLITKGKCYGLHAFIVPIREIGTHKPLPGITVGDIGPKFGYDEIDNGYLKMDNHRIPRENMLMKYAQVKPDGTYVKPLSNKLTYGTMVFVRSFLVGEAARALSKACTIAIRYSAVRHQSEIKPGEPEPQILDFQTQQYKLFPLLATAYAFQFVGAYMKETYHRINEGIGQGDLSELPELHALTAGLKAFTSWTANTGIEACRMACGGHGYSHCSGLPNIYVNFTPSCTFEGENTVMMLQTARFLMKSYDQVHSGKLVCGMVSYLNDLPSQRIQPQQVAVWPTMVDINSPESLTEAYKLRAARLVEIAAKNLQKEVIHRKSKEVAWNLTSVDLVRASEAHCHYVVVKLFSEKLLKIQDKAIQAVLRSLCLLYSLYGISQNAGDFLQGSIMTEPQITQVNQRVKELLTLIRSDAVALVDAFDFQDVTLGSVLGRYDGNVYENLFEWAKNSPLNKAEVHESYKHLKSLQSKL
The assay can be described thus: Kinobeads two-dose competition binding: ACOX1.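 Note: competition of compounds with immobilized broad-spectrum kinase inhibitor beads in cell lysate at 100 and 1,000 nM, 45 min at 4 °C, bead-bound protein quantified by label-free MS versus DMSO.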 The following applies: sheet CATDS matrix 2; Gene Name ACOX1.

[1] abbreviates: sheet "Kinobeads Drugmatrix - all", unit inferred, same values below 1000 recur in sheet "nanomolar".

Read-outs that look alike come from different tables or passages of the source.

T1 sequence (P42684 whole entry): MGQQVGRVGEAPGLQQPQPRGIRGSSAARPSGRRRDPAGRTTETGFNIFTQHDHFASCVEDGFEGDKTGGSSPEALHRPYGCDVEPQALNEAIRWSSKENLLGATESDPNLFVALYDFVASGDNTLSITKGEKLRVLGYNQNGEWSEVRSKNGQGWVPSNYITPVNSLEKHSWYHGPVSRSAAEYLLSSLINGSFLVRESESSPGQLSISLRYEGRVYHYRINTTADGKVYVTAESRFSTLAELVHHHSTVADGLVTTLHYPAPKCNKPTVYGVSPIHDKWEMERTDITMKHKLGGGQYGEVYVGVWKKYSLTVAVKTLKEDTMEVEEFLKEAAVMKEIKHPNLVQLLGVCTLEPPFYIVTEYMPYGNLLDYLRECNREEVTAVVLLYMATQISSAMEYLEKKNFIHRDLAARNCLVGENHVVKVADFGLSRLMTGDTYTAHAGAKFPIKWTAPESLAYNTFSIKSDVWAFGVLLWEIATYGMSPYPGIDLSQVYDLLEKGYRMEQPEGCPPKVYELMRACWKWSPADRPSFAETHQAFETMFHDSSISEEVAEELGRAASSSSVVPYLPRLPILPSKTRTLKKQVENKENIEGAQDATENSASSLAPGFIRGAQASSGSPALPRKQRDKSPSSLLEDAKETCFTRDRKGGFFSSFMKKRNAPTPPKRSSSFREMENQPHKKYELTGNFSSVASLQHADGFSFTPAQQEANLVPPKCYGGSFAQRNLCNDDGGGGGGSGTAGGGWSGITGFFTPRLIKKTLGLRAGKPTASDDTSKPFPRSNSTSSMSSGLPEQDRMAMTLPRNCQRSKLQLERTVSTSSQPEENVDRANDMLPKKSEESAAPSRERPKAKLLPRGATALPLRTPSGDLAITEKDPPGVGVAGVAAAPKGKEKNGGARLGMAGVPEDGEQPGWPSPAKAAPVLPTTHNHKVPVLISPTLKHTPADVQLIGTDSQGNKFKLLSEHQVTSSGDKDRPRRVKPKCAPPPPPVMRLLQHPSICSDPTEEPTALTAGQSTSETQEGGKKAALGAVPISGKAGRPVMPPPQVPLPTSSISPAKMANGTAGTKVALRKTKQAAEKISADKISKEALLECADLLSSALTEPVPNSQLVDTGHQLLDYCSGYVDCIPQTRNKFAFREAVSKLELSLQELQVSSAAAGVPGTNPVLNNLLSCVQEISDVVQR
T2 sequence (Q2M2I8 whole entry): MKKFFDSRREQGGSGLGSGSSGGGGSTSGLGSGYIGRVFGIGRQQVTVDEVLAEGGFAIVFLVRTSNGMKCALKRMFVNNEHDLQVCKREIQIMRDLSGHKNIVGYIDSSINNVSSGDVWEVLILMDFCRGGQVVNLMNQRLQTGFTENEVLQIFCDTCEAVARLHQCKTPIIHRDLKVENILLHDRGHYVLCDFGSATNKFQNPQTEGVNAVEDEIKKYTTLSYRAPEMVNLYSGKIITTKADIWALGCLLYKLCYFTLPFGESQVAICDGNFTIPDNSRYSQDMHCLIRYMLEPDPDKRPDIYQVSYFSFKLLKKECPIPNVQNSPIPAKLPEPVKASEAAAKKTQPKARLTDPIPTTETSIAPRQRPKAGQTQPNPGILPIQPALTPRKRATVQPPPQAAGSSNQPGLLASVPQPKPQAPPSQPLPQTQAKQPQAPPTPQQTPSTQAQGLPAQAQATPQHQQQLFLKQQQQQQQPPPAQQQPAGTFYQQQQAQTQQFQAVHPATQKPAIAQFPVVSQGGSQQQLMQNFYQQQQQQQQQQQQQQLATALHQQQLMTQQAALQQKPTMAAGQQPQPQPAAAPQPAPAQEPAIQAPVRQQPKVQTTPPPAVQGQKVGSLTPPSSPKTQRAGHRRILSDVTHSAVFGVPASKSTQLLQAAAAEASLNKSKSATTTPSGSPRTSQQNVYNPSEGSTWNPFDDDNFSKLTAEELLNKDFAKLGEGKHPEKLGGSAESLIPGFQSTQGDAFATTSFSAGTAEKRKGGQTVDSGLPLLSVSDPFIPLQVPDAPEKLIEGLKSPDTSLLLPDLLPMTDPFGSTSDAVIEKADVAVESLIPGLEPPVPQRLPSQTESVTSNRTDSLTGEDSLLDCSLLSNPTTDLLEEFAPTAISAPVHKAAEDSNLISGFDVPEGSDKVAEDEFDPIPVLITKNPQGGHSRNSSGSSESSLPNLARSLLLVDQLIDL
ABL1, sequence (P00519 28-1130 limits assumed): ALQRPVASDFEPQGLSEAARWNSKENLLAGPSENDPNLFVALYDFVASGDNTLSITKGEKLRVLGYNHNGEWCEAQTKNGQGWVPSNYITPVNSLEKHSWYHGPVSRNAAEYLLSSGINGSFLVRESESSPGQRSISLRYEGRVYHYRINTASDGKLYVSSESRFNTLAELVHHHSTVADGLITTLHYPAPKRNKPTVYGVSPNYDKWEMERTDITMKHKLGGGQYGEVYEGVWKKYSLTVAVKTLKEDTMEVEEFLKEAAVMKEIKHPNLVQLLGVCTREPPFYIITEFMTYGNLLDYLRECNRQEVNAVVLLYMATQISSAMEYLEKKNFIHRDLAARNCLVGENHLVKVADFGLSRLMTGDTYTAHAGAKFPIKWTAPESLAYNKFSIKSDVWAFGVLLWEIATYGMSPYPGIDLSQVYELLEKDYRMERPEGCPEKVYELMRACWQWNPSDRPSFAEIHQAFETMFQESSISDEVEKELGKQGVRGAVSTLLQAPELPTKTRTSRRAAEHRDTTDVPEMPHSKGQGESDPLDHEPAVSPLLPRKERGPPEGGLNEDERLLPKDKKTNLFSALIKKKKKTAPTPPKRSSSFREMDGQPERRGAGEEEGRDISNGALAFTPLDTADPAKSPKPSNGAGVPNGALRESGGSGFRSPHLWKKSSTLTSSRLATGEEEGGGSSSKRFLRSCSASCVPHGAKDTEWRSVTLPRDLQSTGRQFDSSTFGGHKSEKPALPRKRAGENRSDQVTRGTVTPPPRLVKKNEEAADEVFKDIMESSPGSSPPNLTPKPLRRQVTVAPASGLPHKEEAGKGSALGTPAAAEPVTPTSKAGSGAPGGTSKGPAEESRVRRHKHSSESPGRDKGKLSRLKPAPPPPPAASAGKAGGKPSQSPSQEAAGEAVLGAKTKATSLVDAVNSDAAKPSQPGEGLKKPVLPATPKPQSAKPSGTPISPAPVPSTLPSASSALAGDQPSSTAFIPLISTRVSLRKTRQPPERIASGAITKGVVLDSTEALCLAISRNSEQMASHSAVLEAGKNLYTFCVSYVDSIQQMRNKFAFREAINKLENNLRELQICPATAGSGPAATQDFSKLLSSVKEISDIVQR

`CCCc1ccc(S(=O)(=O)NC2CCN(c3ccnc(Nc4ccc(OC)cc4)n3)C2)cc1` (stereo not drawn) [GSK1379737A]: the CATDS at ABL1, on ABL2, at AAK1, on ACAD11 and on ACOX1 was 0 throughout.
Regarding `O=S(=O)(c1cccc2cnccc12)N1CCCNCC1` [Fasudil, reference compound], the CATDS at ABL1, at ABL2, at AAK1, at ACAD11 and at ACOX1 was 0 in each case.
Consider `Cc1ccc(NC(=O)Nc2ccccc2)cc1-c1ccc(C(=O)Nc2ccncc2)cc1` [GSK1398471A], for which the CATDS at ABL1, on ABL2, on AAK1, on ACAD11 and at ACOX1 was 0 throughout.
In the case of `Cc1ccccc1Cn1ccn2c(=O)cc(N3CCOCC3)nc12` [GSK2269905A], the CATDS on ABL1, on ABL2, at AAK1, on ACAD11 and on ACOX1 was 0 throughout.
As to `Nc1nc(-c2ccc3c(N)n[nH]c3c2)cc(N2CCCCC2)n1` [GSK2228768A], the CATDS came to 0 on ABL1; 0 on ABL2; 0.1964 on AAK1; 0 on ACAD11; 0 on ACOX1.
Turning to `O=c1cc(N2CCOCC2)nc2n(Cc3cccc(Cl)c3)ccn12` [GSK2296823A], the CATDS at ABL1, on ABL2, on AAK1, at ACAD11 and at ACOX1 was 0 in each case.
For `Cc1c(Cn2c(C)nn3c(=O)cc(N4CCOC(C)C4)nc23)cccc1C(F)(F)F` (stereo not drawn) [GSK2344444A], the CATDS on ABL1, at ABL2, at AAK1, at ACAD11 and at ACOX1 was 0 throughout.
For `O=C(NCCNc1ccnc(NCc2ccc(F)cc2)n1)c1cc2ccccc2s1` [GSK1379944A], the CATDS on ABL1, at ABL2, on AAK1, at ACAD11 and at ACOX1 was 0 throughout.
`Cc1cc(Nc2ncc(Cl)c(Nc3ccccc3S(=O)(=O)C(C)C)n2)c(OC(C)C)cc1C1CCNCC1` [Ceritinib, reference compound]: the CATDS on ABL1, on ABL2, on AAK1, on ACAD11 and on ACOX1 was 0 each time.
Turning to `C=CC(=O)Nc1cc(-n2c(=O)ccc3cnc4ccc(-c5ccc(NS(C)(=O)=O)cc5)cc4c32)ccc1C` [BMX-IN-1], the CATDS at ABL1, on ABL2, at AAK1, on ACAD11 and on ACOX1 was 0 in each case.
Turning to `NC[C@H](CC1CCCCC1)NC(=O)c1ccc(-c2ccnc3[nH]ccc23)s1` [GSK1581428A], the CATDS at ABL1 amounted to 0; on ABL2 it was 0; on AAK1 it was 0.07203; on ACAD11, 0; on ACOX1 it was 0. In addition, the potency estimated from few doses at AAK1 is 54.5 nM.
With `CCCN1CCC(c2ccc(Nc3nc(Nc4cc(F)ccc4C(N)=O)c4cc[nH]c4n3)c(OC)c2)CC1` [GSK1326255A], the CATDS at ABL1, on ABL2, on AAK1, at ACAD11 and on ACOX1 was 0 throughout.
For `O=c1[nH]cc(-c2ccc(N3CCOCC3)cc2)c2sc(-c3cn[nH]c3)cc12` [GSK2276055A], the CATDS on ABL1, at ABL2, on AAK1, at ACAD11 and on ACOX1 was 0 throughout.
As to `CNc1cc(-c2ccc3c(N)n[nH]c3c2)nc(N)n1` [GSK2224810A], the CATDS at ABL1 is 0; at ABL2, 0; on AAK1 it was 0.04187; at ACAD11 it was 0; on ACOX1, 0.
For the compound `CN(C)S(=O)(=O)c1cc(-c2ccc3nccc(-c4cccc(S(N)(=O)=O)c4)c3c2)cnc1N` [GSK1669921A], the CATDS on ABL1, on ABL2, on AAK1, at ACAD11 and at ACOX1 was 0 throughout.
As for `Cc1c(Cn2c3ccccc3n3c(=O)cc(N4CCOCC4)nc23)cccc1C(F)(F)F` [GSK2306394A], the CATDS at ABL1, at ABL2, at AAK1, on ACAD11 and at ACOX1 was 0 throughout.
As for `COc1cc2ncnc(Nc3ccc(F)c(Cl)c3)c2cc1O[C@H]1CC[C@H](N)CC1` [BIBW3133BS], the CATDS on ABL1, at ABL2, at AAK1, at ACAD11 and on ACOX1 was 0 in each case.
For the compound `Cc1c(Cn2ccn3c(=O)nc(N4CCOCC4)cc23)cccc1C(F)(F)F` [GSK2336394A], the CATDS at ABL1, at ABL2, at AAK1, at ACAD11 and on ACOX1 was 0 throughout.
Turning to `CCCS(=O)(=O)Nc1ccc(F)c(-n2cc(-c3cncc(OC)c3)nn2)c1F` [BI00865461], the CATDS on ABL1, on ABL2, on AAK1, on ACAD11 and on ACOX1 was 0 in each case.
As for `COc1ccc2nc(-c3cccc(C)n3)nc(Nc3ccncc3)c2c1` [GSK204919_KCGS], the CATDS on ABL1, at ABL2, at AAK1, at ACAD11 and at ACOX1 was 0 each time.
Consider `O=c1[nH]c2cc(Nc3ccc(F)cc3F)ccc2n1CC1CCCCC1` [BI00601000], for which the CATDS at ABL1, on ABL2, on AAK1, at ACAD11 and on ACOX1 was 0 in each case.
For `CNc1nccc(-c2ccc3c(N)n[nH]c3c2)n1` [GSK2206003A], the CATDS at ABL1 came out at 0; on ABL2, 0; on AAK1 it was 0.118; on ACAD11, 0; on ACOX1 it was 0. Further, the potency estimated from few doses on AAK1 (setting [1]) is 108 nM.
As to `CC(C)Nc1cc(-c2ccc3c(N)n[nH]c3c2)nc(N)n1` [GSK2221681A], the CATDS on ABL1 was found to be 0; at ABL2, 0; on AAK1, 0.2807; on ACAD11, 0; on ACOX1, 0. In addition, the potency estimated from few doses on AAK1 (setting [1]) is 149 nM.
With `COc1cc(C)c(NC(=O)CN(C)C)cc1Nc1nc(Nc2cccc(F)c2C(N)=O)c2cc[nH]c2n1` [GSK2213727A], the CATDS on ABL1, at ABL2, at AAK1, on ACAD11 and on ACOX1 was 0 throughout.

The values are drawn from paper PMC11062922 (Nature Chemical Biology, 2023).
